Measured values as given in the supplement of paper PMC4862054.

What follows are compounds tested on HDQ-P1 (assay: normalised response (% of control), CellTiter-Glo; higher = more viable cells (100 = DMSO, 0 = benzethonium chloride kill control)). Settings: incubation time: 72 h.
Outline: (§1)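 Breast cancer cell lines in 20 µl suspension were added to 384-well plates containing compound at 5 concentrations, spaced in 10-fold steps across a 10,000-fold range chosen for each compound, and incubated for 72 h. CellTox Green fluorescence was read at 485/520 nm, followed by CellTiter-Glo luminescence after 10 min at room temperature. Signals on each plate were normalised so that 0.1 % DMSO equals 100 and a positive kill control equals 0. Every value in the table is the normalised signal at one concentration of the series.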

Work on `CN(C)CCN1C(=O)c2cccc3cc(N)cc(c23)C1=O` [Amonafide] (1000 nM) yielded a normalised response of 102%.

Each compound was assayed on CAL-85-1 in the same assay as above. Settings: incubation time: 72 h.
Outline: as §1

In order of falling normalised response:
1. c1ccc([C@H]2CN3CCSC3=N2)cc1 [Levamisole] (1000 nM)  104%
2. Nc1nc(OCc2cc(Br)cs2)c2[nH]cnc2n1 [Lomeguatrib] (1000 nM)  104%
3. CN(C)C[C@@H]1CCn2cc(c3ccccc32)C2=C(C(=O)NC2=O)c2cn(c3ccccc23)CCO1 [Ruboxistaurin] (1000 nM)  103%
4. CCCCCCCCc1ccc(CCC(N)(CO)CO)cc1 [Fingolimod] (1000 nM)  103%
5. O=C(O)CCCc1ccc(N(CCCl)CCCl)cc1 [Chlorambucil] (1000 nM)  103%
6. CNNCc1ccc(C(=O)NC(C)C)cc1 [Procarbazine] (1000 nM)  102%
7. CN(C)CCN1C(=O)c2cccc3cc(N)cc(c23)C1=O [Amonafide] (1000 nM)  93.6%
8. Nc1ncnc2c1c(COc1cccc(Cl)c1)nn2C1CCOCC1 (1000 nM)  93.4%
9. O=C1NC(=O)[C@@H](c2cn3c4c(cccc24)CCC3)[C@@H]1c1c[nH]c2ccccc12 [Tivantinib] (100 nM)  89.5%

The compounds below were run on MDA-MB-453 in the same assay as above. Settings: incubation time: 72 h.
Outline: as §1

In order of falling normalised response:
1. CN(C)CCN1C(=O)c2cccc3cc(N)cc(c23)C1=O [Amonafide] (1000 nM)  107%
2. c1ccc([C@H]2CN3CCSC3=N2)cc1 [Levamisole] (1000 nM)  105%
3. Nc1nc(OCc2cc(Br)cs2)c2[nH]cnc2n1 [Lomeguatrib] (1000 nM)  105%
4. Nc1ncnc2c1c(COc1cccc(Cl)c1)nn2C1CCOCC1 (1000 nM)  103%
5. CCCCCCCCc1ccc(CCC(N)(CO)CO)cc1 [Fingolimod] (1000 nM)  102%
6. O=C(O)CCCc1ccc(N(CCCl)CCCl)cc1 [Chlorambucil] (1000 nM)  102%
7. CNNCc1ccc(C(=O)NC(C)C)cc1 [Procarbazine] (1000 nM)  100%
8. CN(C)C[C@@H]1CCn2cc(c3ccccc32)C2=C(C(=O)NC2=O)c2cn(c3ccccc23)CCO1 [Ruboxistaurin] (1000 nM)  96.1%
9. O=C1NC(=O)[C@@H](c2cn3c4c(cccc24)CCC3)[C@@H]1c1c[nH]c2ccccc12 [Tivantinib] (100 nM)  77.3%

These compounds were tested on CAL-120 in the same assay as above. Settings: incubation time: 72 h.
Outline: as §1

In order of rising normalised response:
1. CN(C)C[C@@H]1CCn2cc(c3ccccc32)C2=C(C(=O)NC2=O)c2cn(c3ccccc23)CCO1 [Ruboxistaurin] (1000 nM)  83.7%
2. O=C(O)CCCc1ccc(N(CCCl)CCCl)cc1 [Chlorambucil] (1000 nM)  94.7%
3. CCCCCCCCc1ccc(CCC(N)(CO)CO)cc1 [Fingolimod] (1000 nM)  96.1%
4. CN(C)CCN1C(=O)c2cccc3cc(N)cc(c23)C1=O [Amonafide] (1000 nM)  96.2%
5. Nc1nc(OCc2cc(Br)cs2)c2[nH]cnc2n1 [Lomeguatrib] (1000 nM)  96.6%
6. c1ccc([C@H]2CN3CCSC3=N2)cc1 [Levamisole] (1000 nM)  101%
7. CNNCc1ccc(C(=O)NC(C)C)cc1 [Procarbazine] (1000 nM)  102%
8. O=C1NC(=O)[C@@H](c2cn3c4c(cccc24)CCC3)[C@@H]1c1c[nH]c2ccccc12 [Tivantinib] (100 nM)  103%
9. Nc1ncnc2c1c(COc1cccc(Cl)c1)nn2C1CCOCC1 (1000 nM)  111%

The compounds below were run on MDA-MB-436 in the same assay as above. Settings: incubation time: 72 h.
Outline: as §1

In order of rising normalised response:
1. CN(C)C[C@@H]1CCn2cc(c3ccccc32)C2=C(C(=O)NC2=O)c2cn(c3ccccc23)CCO1 [Ruboxistaurin] (1000 nM)  92.2%
2. CN(C)CCN1C(=O)c2cccc3cc(N)cc(c23)C1=O [Amonafide] (1000 nM)  95.2%
3. Nc1nc(OCc2cc(Br)cs2)c2[nH]cnc2n1 [Lomeguatrib] (1000 nM)  97.6%
4. O=C1NC(=O)[C@@H](c2cn3c4c(cccc24)CCC3)[C@@H]1c1c[nH]c2ccccc12 [Tivantinib] (100 nM)  98%
5. CCCCCCCCc1ccc(CCC(N)(CO)CO)cc1 [Fingolimod] (1000 nM)  103%
6. O=C(O)CCCc1ccc(N(CCCl)CCCl)cc1 [Chlorambucil] (1000 nM)  103%
7. c1ccc([C@H]2CN3CCSC3=N2)cc1 [Levamisole] (1000 nM)  104%
8. CNNCc1ccc(C(=O)NC(C)C)cc1 [Procarbazine] (1000 nM)  104%
9. Nc1ncnc2c1c(COc1cccc(Cl)c1)nn2C1CCOCC1 (1000 nM)  106%

What follows are compounds tested on SK-BR-3 in the same assay as above. Settings: incubation time: 72 h.
Outline: as §1

In order of rising normalised response:
1. CN(C)C[C@@H]1CCn2cc(c3ccccc32)C2=C(C(=O)NC2=O)c2cn(c3ccccc23)CCO1 [Ruboxistaurin] (1000 nM)  87.7%
2. CN(C)CCN1C(=O)c2cccc3cc(N)cc(c23)C1=O [Amonafide] (1000 nM)  89.5%
3. O=C1NC(=O)[C@@H](c2cn3c4c(cccc24)CCC3)[C@@H]1c1c[nH]c2ccccc12 [Tivantinib] (100 nM)  92%
4. O=C(O)CCCc1ccc(N(CCCl)CCCl)cc1 [Chlorambucil] (1000 nM)  101%
5. CCCCCCCCc1ccc(CCC(N)(CO)CO)cc1 [Fingolimod] (1000 nM)  102%
6. Nc1nc(OCc2cc(Br)cs2)c2[nH]cnc2n1 [Lomeguatrib] (1000 nM)  103%
7. Nc1ncnc2c1c(COc1cccc(Cl)c1)nn2C1CCOCC1 (1000 nM)  107%
8. CNNCc1ccc(C(=O)NC(C)C)cc1 [Procarbazine] (1000 nM)  110%
9. c1ccc([C@H]2CN3CCSC3=N2)cc1 [Levamisole] (1000 nM)  113%

What follows are compounds tested on MDA-MB-468 in the same assay as above. Settings: incubation time: 72 h.
Outline: as §1

In order of falling normalised response:
1. c1ccc([C@H]2CN3CCSC3=N2)cc1 [Levamisole] (1000 nM)  110%
2. CNNCc1ccc(C(=O)NC(C)C)cc1 [Procarbazine] (1000 nM)  105%
3. O=C(O)CCCc1ccc(N(CCCl)CCCl)cc1 [Chlorambucil] (1000 nM)  101%
4. Nc1nc(OCc2cc(Br)cs2)c2[nH]cnc2n1 [Lomeguatrib] (1000 nM)  100%
5. CCCCCCCCc1ccc(CCC(N)(CO)CO)cc1 [Fingolimod] (1000 nM)  98.1%
6. Nc1ncnc2c1c(COc1cccc(Cl)c1)nn2C1CCOCC1 (1000 nM)  96.6%
7. O=C1NC(=O)[C@@H](c2cn3c4c(cccc24)CCC3)[C@@H]1c1c[nH]c2ccccc12 [Tivantinib] (100 nM)  96.1%
8. CN(C)CCN1C(=O)c2cccc3cc(N)cc(c23)C1=O [Amonafide] (1000 nM)  91.6%
9. CN(C)C[C@@H]1CCn2cc(c3ccccc32)C2=C(C(=O)NC2=O)c2cn(c3ccccc23)CCO1 [Ruboxistaurin] (1000 nM)  73.8%

What follows are compounds tested on BT-474 in the same assay as above. Settings: incubation time: 72 h.
Outline: as §1

In order of falling normalised response:
1. O=C1NC(=O)[C@@H](c2cn3c4c(cccc24)CCC3)[C@@H]1c1c[nH]c2ccccc12 [Tivantinib] (100 nM)  106%
2. Nc1ncnc2c1c(COc1cccc(Cl)c1)nn2C1CCOCC1 (1000 nM)  104%
3. Nc1nc(OCc2cc(Br)cs2)c2[nH]cnc2n1 [Lomeguatrib] (1000 nM)  103%
4. c1ccc([C@H]2CN3CCSC3=N2)cc1 [Levamisole] (1000 nM)  100%
5. CNNCc1ccc(C(=O)NC(C)C)cc1 [Procarbazine] (1000 nM)  98.1%
6. O=C(O)CCCc1ccc(N(CCCl)CCCl)cc1 [Chlorambucil] (1000 nM)  96.7%
7. CCCCCCCCc1ccc(CCC(N)(CO)CO)cc1 [Fingolimod] (1000 nM)  94.6%
8. CN(C)CCN1C(=O)c2cccc3cc(N)cc(c23)C1=O [Amonafide] (1000 nM)  87.5%
9. CN(C)C[C@@H]1CCn2cc(c3ccccc32)C2=C(C(=O)NC2=O)c2cn(c3ccccc23)CCO1 [Ruboxistaurin] (1000 nM)  87.3%

What follows are compounds tested on HCC1143 in the same assay as above. Settings: incubation time: 72 h.
Outline: as §1

In order of falling normalised response:
1. c1ccc([C@H]2CN3CCSC3=N2)cc1 [Levamisole] (1000 nM)  109%
2. CNNCc1ccc(C(=O)NC(C)C)cc1 [Procarbazine] (1000 nM)  104%
3. Nc1ncnc2c1c(COc1cccc(Cl)c1)nn2C1CCOCC1 (1000 nM)  104%
4. CCCCCCCCc1ccc(CCC(N)(CO)CO)cc1 [Fingolimod] (1000 nM)  101%
5. Nc1nc(OCc2cc(Br)cs2)c2[nH]cnc2n1 [Lomeguatrib] (1000 nM)  101%
6. O=C(O)CCCc1ccc(N(CCCl)CCCl)cc1 [Chlorambucil] (1000 nM)  100%
7. CN(C)CCN1C(=O)c2cccc3cc(N)cc(c23)C1=O [Amonafide] (1000 nM)  97.6%
8. O=C1NC(=O)[C@@H](c2cn3c4c(cccc24)CCC3)[C@@H]1c1c[nH]c2ccccc12 [Tivantinib] (100 nM)  93.9%
9. CN(C)C[C@@H]1CCn2cc(c3ccccc32)C2=C(C(=O)NC2=O)c2cn(c3ccccc23)CCO1 [Ruboxistaurin] (1000 nM)  90%

Each compound was assayed on MCF-10A in the same assay as above. Settings: incubation time: 72 h.
Outline: as §1

In order of rising normalised response:
1. CN(C)C[C@@H]1CCn2cc(c3ccccc32)C2=C(C(=O)NC2=O)c2cn(c3ccccc23)CCO1 [Ruboxistaurin] (1000 nM)  86.1%
2. O=C1NC(=O)[C@@H](c2cn3c4c(cccc24)CCC3)[C@@H]1c1c[nH]c2ccccc12 [Tivantinib] (100 nM)  97.7%
3. O=C(O)CCCc1ccc(N(CCCl)CCCl)cc1 [Chlorambucil] (1000 nM)  102%
4. CCCCCCCCc1ccc(CCC(N)(CO)CO)cc1 [Fingolimod] (1000 nM)  103%
5. Nc1ncnc2c1c(COc1cccc(Cl)c1)nn2C1CCOCC1 (1000 nM)  104%
6. Nc1nc(OCc2cc(Br)cs2)c2[nH]cnc2n1 [Lomeguatrib] (1000 nM)  104%
7. CNNCc1ccc(C(=O)NC(C)C)cc1 [Procarbazine] (1000 nM)  105%
8. c1ccc([C@H]2CN3CCSC3=N2)cc1 [Levamisole] (1000 nM)  109%
